Reference: PubChem BioAssay AID328 (DTP/NCI, 2004)
Inconclusive results and toxic doses are left out.

Test system: BDF1 mice, P388 leukemia ip, median survival T/C
Test: NCI In Vivo Anticancer Drug Screen. Data for tumor model P388 Leukemia (intraperitoneal) in B6D2F1 (BDF1) mice
Conditions: endpoint: median survival time, higher = longer survival
Procedure, shortened: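 Mice carrying the transplantable tumour receive compound or vehicle. Survival is followed in each arm, and the treated measure is divided by the vehicle measure.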

[1] = dose: 50.0 mg/kg/injection, schedule: Q01DX009 (ip), vehicle: saline with Tween-80
[2] = dose: 200.0 mg/kg/injection, schedule: Q01DX009 (ip), vehicle: Klucel (hydroxypropylcellulose) (HPC)
[3] = dose: 200.0 mg/kg/injection, schedule: Q04DX003 (ip), vehicle: Klucel (hydroxypropylcellulose) (HPC)
[4] = dose: 100.0 mg/kg/injection, schedule: Q01DX009 (ip), vehicle: saline with Tween-80
[5] = dose: 100.0 mg/kg/injection, schedule: Q04DX003 (ip), vehicle: saline with Tween-80
[6] = dose: 200.0 mg/kg/injection, schedule: Q04DX003 (ip), vehicle: saline with Tween-80
[7] = dose: 400.0 mg/kg/injection, schedule: Q04DX003 (ip), vehicle: saline with Tween-80
[8] = dose: 100.0 mg/kg/injection, schedule: Q04DX003 (ip), vehicle: saline
[9] = dose: 200.0 mg/kg/injection, schedule: Q04DX003 (ip), vehicle: saline
[10] = dose: 400.0 mg/kg/injection, schedule: Q04DX003 (ip), vehicle: saline
[11] = dose: 200.0 mg/kg/injection, schedule: Q01DX009 (ip), vehicle: saline with Tween-80

O=C1N(Br)C(=O)C(c2ccc(Cl)cc2)(c2ccc(Cl)cc2)N1Br
T/C (dose: 12.5 mg/kg/injection, schedule: Q01DX009 (ip), vehicle: saline with Tween-80): 113 % of control
T/C (dose: 45.0 mg/kg/injection, schedule: Q04DX003 (ip), vehicle: Klucel (hydroxypropylcellulose) (HPC)): 90 % of control
T/C [1]: 172 % of control
T/C (dose: 65.0 mg/kg/injection, schedule: Q04DX003 (ip), vehicle: Klucel (hydroxypropylcellulose) (HPC)): 95 % of control
T/C (dose: 100.0 mg/kg/injection, schedule: Q04DX003 (ip), vehicle: alcohol): 150 % of control
T/C (dose: 100.0 mg/kg/injection, schedule: Q04DX003 (ip), vehicle: saline sonified): 115 % of control
T/C (dose: 130.0 mg/kg/injection, schedule: Q01DX009 (ip), vehicle: Klucel (hydroxypropylcellulose) (HPC)): 156 % of control
T/C (dose: 132.0 mg/kg/injection, schedule: Q01DX009 (ip), vehicle: Klucel (hydroxypropylcellulose) (HPC)): 95 % of control
T/C (dose: 132.0 mg/kg/injection, schedule: Q04DX003 (ip), vehicle: Klucel (hydroxypropylcellulose) (HPC)): 177 % of control
T/C (dose: 132.0 mg/kg/injection, schedule: Q04DX003 (ip), vehicle: saline): 165 % of control
T/C (dose: 200.0 mg/kg/injection, schedule: Q01DX003 (ip), vehicle: Klucel (hydroxypropylcellulose) (HPC)): 154 % of control
T/C [2]: 175 % of control
T/C [3]: 154 % of control
T/C (dose: 200.0 mg/kg/injection, schedule: Q04DX003 (ip), vehicle: alcohol): 185 % of control
T/C (dose: 200.0 mg/kg/injection, schedule: Q04DX003 (ip), vehicle: saline sonified): 160 % of control
T/C (dose: 300.0 mg/kg/injection, schedule: Q04DX003 (ip), vehicle: saline): 150 % of control
T/C (dose: 400.0 mg/kg/injection, schedule: Q04DX003 (ip), vehicle: alcohol): 150 % of control

CCCC(=O)OCc1ccc(Cl)c(Cl)c1
T/C (dose: 25.0 mg/kg/injection, schedule: Q01DX009 (ip), vehicle: saline with Tween-80): 100 % of control
T/C [1]: 108 % of control
T/C [4]: 112 % of control

CCN1CC[N+](C)(CC)Cc2ccccc21 (configuration not stated)
T/C (dose: 12.5 mg/kg/injection, schedule: Q04DX003 (ip), vehicle: saline with Tween-80): 90 % of control
T/C (dose: 25.0 mg/kg/injection, schedule: Q04DX003 (ip), vehicle: saline with Tween-80): 93 % of control

C=Cn1cnc2c(N)ncnc21
T/C [5]: 103 % of control
T/C [6]: 113 % of control
T/C [7]: 106 % of control

CCOC(=O)c1cc(C)nnc1C(=O)OCC
T/C [8]: 95 % of control
T/C [9]: 95 % of control
T/C [10]: 91 % of control

Cc1cc(O)c(C(c2ccccc2)c2c(O)cc(C)[nH]c2=O)c(=O)[nH]1
T/C [1]: 94 % of control
T/C [4]: 86 % of control

c1ccc2c(NCCCCCCCCNc3c4ccccc4nc4ccccc34)c3ccccc3nc2c1
T/C (dose: 2.5 mg/kg/injection, schedule: Q01DX009 (ip), vehicle: Klucel (hydroxypropylcellulose) (HPC)): 112 % of control
T/C (dose: 20.0 mg/kg/injection, schedule: Q01DX009 (ip), vehicle: Klucel (hydroxypropylcellulose) (HPC)): 100 % of control

Clc1ccccc1-c1nc(-c2ccncc2)no1
T/C [1]: 89 % of control
T/C [4]: 93 % of control
T/C [11]: 100 % of control

CC1CCC2(C)CCC(C(C)C)C2(O)CC1 (configuration not stated)
T/C (dose: 100.0 mg/kg/injection, schedule: Q01DX009 (ip), vehicle: saline): 103 % of control
T/C [8]: 100 % of control
T/C [9]: 109 % of control
T/C (dose: 400.0 mg/kg/injection, schedule: Q01DX009 (ip), vehicle: saline): 111 % of control
T/C [10]: 100 % of control

CC1CCCC/C1=N/NC(N)=O (configuration not stated)
T/C (dose: 12.5 mg/kg/injection, schedule: Q01DX009 (ip), vehicle: Klucel (hydroxypropylcellulose) (HPC)): 95 % of control
T/C (dose: 25.0 mg/kg/injection, schedule: Q01DX009 (ip), vehicle: Klucel (hydroxypropylcellulose) (HPC)): 95 % of control
T/C (dose: 50.0 mg/kg/injection, schedule: Q01DX009 (ip), vehicle: Klucel (hydroxypropylcellulose) (HPC)): 91 % of control
T/C (dose: 100.0 mg/kg/injection, schedule: Q01DX009 (ip), vehicle: Klucel (hydroxypropylcellulose) (HPC)): 104 % of control
T/C (dose: 100.0 mg/kg/injection, schedule: Q04DX003 (ip), vehicle: Klucel (hydroxypropylcellulose) (HPC)): 100 % of control
T/C [2]: 86 % of control
T/C [3]: 95 % of control
T/C (dose: 400.0 mg/kg/injection, schedule: Q04DX003 (ip), vehicle: Klucel (hydroxypropylcellulose) (HPC)): 95 % of control

CCCCCCCCCCCCCCCC(=O)N(c1ccc(N)cc1)C(C)CCCN(CC)CC (configuration not stated)
T/C [4]: 89 % of control
T/C [5]: 90 % of control
T/C [11]: 98 % of control
T/C [6]: 90 % of control
T/C (dose: 400.0 mg/kg/injection, schedule: Q01DX009 (ip), vehicle: saline with Tween-80): 100 % of control
T/C [7]: 90 % of control

COc1ccccc1NC(=O)N(CCCl)N=O
T/C (dose: 0.1 mg/kg/injection, schedule: Q04DX003 (ip), vehicle: saline with Tween-80): 110 % of control
T/C (dose: 0.2 mg/kg/injection, schedule: Q04DX003 (ip), vehicle: saline with Tween-80): 100 % of control
T/C (dose: 0.4 mg/kg/injection, schedule: Q04DX003 (ip), vehicle: saline with Tween-80): 105 % of control
T/C (dose: 0.8 mg/kg/injection, schedule: Q04DX003 (ip), vehicle: saline with Tween-80): 110 % of control

C/C=C(\C)C(=O)OCC1CC[N+](C)([O-])C1 (configuration not stated)
T/C (dose: 50.0 mg/kg/injection, schedule: Q01DX009 (ip), vehicle: water): 103 % of control
T/C (dose: 100.0 mg/kg/injection, schedule: Q01DX009 (ip), vehicle: water): 100 % of control
T/C (dose: 200.0 mg/kg/injection, schedule: Q01DX009 (ip), vehicle: water): 103 % of control
T/C (dose: 400.0 mg/kg/injection, schedule: Q01DX009 (ip), vehicle: water): 119 % of control
